Our source for the IC50 values is patent publication US11382918B2, “Methods for treating Huntington's Disease” (PTC Therapeutics, Inc., priority 2017, dated 2022).

One may read the IC50 as the point on the concentration scale where inhibition reaches its midpoint.

The subject of the experiment is Endogenous Huntingtin Protein (HTT). As to the kind of experiment: Endogenous Huntingtin Protein Assay (ELISA-based MSD electrochemiluminescence). The format is cell-based. Conditions: Table 1. The gist of the method: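 MSD electrochemiluminescence sandwich ELISA for endogenous HTT: sample lysates captured overnight at 4 °C on MW1 (expanded polyglutamine) or MAB2166 antibody. Detection used rabbit monoclonal #5656S, then goat anti-rabbit SULFO-TAG antibody, each 1 h at room temperature.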
Background: An ELISA detects its analyte on a solid surface through an enzyme-linked reagent.
For the compound `Cc1cn2nc(-c3cc(=O)n4cc(N5CCC(N6CCOCC6)CC5)ccc4n3)cc2c(C)n1` [compound 428, 2-(4,6-dimethylpyrazolo[1,5-a]pyrazin-2-yl)-7-[4-(morpholin-4-yl)piperidin-1-yl]-4H-pyrido[1,2-a]pyrimidin-4-one], the IC50 lay in the range of 3000 to 33000 nM.
With `Cc1cc(=O)n2cc(-c3cc(=O)n4cc(N5CCNCC5)ccc4n3)ccc2n1` [compound 837, 2′-methyl-7-(piperazin-1-yl)-4H,4′H-2,7′-bipyrido[1,2-a]pyrimidine-4,4′-dione] the figure was 3000 to 33000 nM.
On to `Cc1nc(C2CCNCC2)cn2c(=O)cc(-c3cc(F)c4nn(C)cc4c3)nc12` [compound 869, 2-(7-fluoro-2-methyl-2H-indazol-5-yl)-9-methyl-7-(piperidin-4-yl)-4H-pyrazino[1,2-a]pyrimidin-4-one], for which the IC50 was below 100 nM.
The same measure for `CCc1cc(-c2cc(=O)n3cc(C4CCNCC4)ccc3n2)cn2cc(C)nc12` [compound 696, 2-(8-ethyl-2-methylimidazo[1,2-a]pyridin-6-yl)-7-(piperidin-4-yl)-4H-pyrido[1,2-a]pyrimidin-4-one]: below 100 nM; for `Cc1cn2nc(-c3cc(=O)n4cc(N5CCN[C@@H](C)C5)ccc4n3)cc2c(C)n1` [compound 121, 2-(4,6-dimethylpyrazolo[1,5-a]pyrazin-2-yl)-7-[(3S)-3-methylpiperazin-1-yl]-4H-pyrido[1,2-a]pyrimidin-4-one]: 3000 to 33000 nM.
The same measure for `Cc1cc(-c2cc(=O)n3cc(N4CCN(C)CC4)ccc3n2)cc2cn(C)nc12` [compound 768, 2-(2,7-dimethyl-2H-indazol-5-yl)-7-(4-methylpiperazin-1-yl)-4H-pyrido[1,2-a]pyrimidin-4-one]: 1000 to 3000 nM; for `CCN1CCC(c2cc(C)c3nc(-c4ccc5nn(C)cc5c4)cc(=O)n3c2)CC1` [compound 719, 7-(1-ethylpiperidin-4-yl)-9-methyl-2-(2-methyl-2H-indazol-5-yl)-4H-pyrido[1,2-a]pyrimidin-4-one]: below 100 nM.
The compound `CCc1nc(C)cn2nc(-c3cc(=O)n4cc(C5=CCNCC5)ccc4n3)cc12` [compound 763, 2-(4-ethyl-6-methylpyrazolo[1,5-a]pyrazin-2-yl)-7-(1,2,3,6-tetrahydropyridin-4-yl)-4H-pyrido[1,2-a]pyrimidin-4-one] came in with an IC50 of 100 to 500 nM.
With `Cc1cc(C2CCNCC2)cn2c(=O)cc(-c3ccc4nn(C)cc4c3)nc12` [compound 721, 9-methyl-2-(2-methyl-2H-indazol-5-yl)-7-(piperidin-4-yl)-4H-pyrido[1,2-a]pyrimidin-4-one] the figure was 500 to 1000 nM; with `CN1CC=C(c2cn3c(=O)cc(-c4ccc5c(cnn5C)c4)nc3cn2)CC1` [compound 506, 2-(1-methyl-1H-indazol-5-yl)-7-(1-methyl-1,2,3,6-tetrahydropyridin-4-yl)-4H-pyrazino[1,2-a]pyrimidin-4-one], 3000 to 33000 nM.
With `Cc1cc(C2CCN(C3CC3)CC2)cn2c(=O)cc(-c3ccc4nn(C)cc4c3)nc12` [compound 718, 7-(1-cyclopropylpiperidin-4-yl)-9-methyl-2-(2-methyl-2H-indazol-5-yl)-4H-pyrido[1,2-a]pyrimidin-4-one] the figure was 100 to 500 nM; with `Cc1cn2cc(-c3ccc4nc(C5CCN(C)CC5)cc(=O)n4c3)ccc2n1` [compound 460, 7-(2-methylimidazo[1,2-a]pyridin-6-yl)-2-(1-methylpiperidin-4-yl)-4H-pyrido[1,2-a]pyrimidin-4-one], 3000 to 33000 nM; with `CCc1nc(C)cn2nc(-c3cc(=O)n4cc(C5CCN(CCF)CC5)ccc4n3)cc12` [compound 668, 2-(4-ethyl-6-methylpyrazolo[1,5-a]pyrazin-2-yl)-7-[1-(2-fluoroethyl)piperidin-4-yl]-4H-pyrido[1,2-a]pyrimidin-4-one], 500 to 1000 nM.
As for `Cc1cn2cc(-c3cc(=O)n4cc(C5CCN(C(C)C)CC5)ncc4n3)cc(Cl)c2n1` [compound 595, 2-(8-chloro-2-methylimidazo[1,2-a]pyridin-6-yl)-7-[1-(propan-2-yl)piperidin-4-yl]-4H-pyrazino[1,2-a]pyrimidin-4-one], the IC50 fell in the range of 1000 to 3000 nM.
